This passage reports IC50 results from patent US20100226881A1, “PYRAZOLO[1,5-a]PYRIDINES AND THEIR USE IN CANCER THERAPY” (Auckland Uniservices Limited, priority 2007, published 2010).

SMILES strings stand for the structures. Structures can show the parent of a compound that is named as a salt. Where two headings read alike, the source gives them in different places.

The target in one assay is p110β/p85 (Homo sapiens, UniProt P42338). The assay is described as follows: Inhibition of isolated enzyme, PI 3-kinase p110β/p85. The class given is biochemical. The settings on record: recombinant enzyme, 100 μM ATP, average of two experiments. The method, then: (§1) Compounds were evaluated for their ability to inhibit the Class I PI 3-kinase enzymes p110δ/p85, p110α/p85 and p110β/p85. Reaction mixtures comprising 0.1 μg of recombinant enzyme, 10 μg of L-α-phosphatidylinositol, the compound (DMSO only or DMSO+compound to a final concentration of 1%), 2× Lipid Kinase Buffer (40 mM Tris-HCl pH 7.4, 200 mM NaCl, 1 mM EDTA) were activated by the addition of an ATP mix (5 mM MgCl2, 100 μM ATP, 0.1 μL [γ^33P]ATP). […] Firstly, 200 μL of chloroform/methanol (1:1) was added, the biphasic reactions mixed and centrifuged briefly, and the inorganic phase was removed and discarded.

In another assay the target is p110α/p85 (Homo sapiens, UniProt P42336). In words: Inhibition of isolated enzyme, PI 3-kinase p110α/p85.
In another assay the target is p110δ/p85 (Homo sapiens, UniProt O00329). In words: Inhibition of isolated enzyme, PI 3-kinase p110δ/p85. It counts as biochemical. To be noted: recombinant enzyme, 100 μM ATP, average of two experiments. Here is the method: as §1
The test system of the next assay is NZOV9. The assay is described as follows: Cellular growth inhibition (3H-thymidine), NZOV9. The class given is cell-based. The settings on record: Homo sapiens, five days, 3H-thymidine incorporation, maximum 20 μM. The method, then: (§2) The compounds were evaluated against two early passage human cell lines NZB5 and NZOV9, whose development and culture have been described [Marshall et al, Oncol. Res. 2004, 14, 297]. The cells were grown in ITS medium (α-modified minimal essential medium supplemented insulin, transferrin, selenite and 5% fetal bovine serum) and grown on 96-well tissue culture plates under an atmosphere of 5% O2, 5% CO2 and 90% N2. Individual wells contained 500-1000 cells (depending on the growth rate) in a volume of 150 μL. Compounds were added at 10-fold concentration steps to a maximum of 20 μM and plates were incubated for five days, with ^3H-thymidine being added over the last 6 h. Cells were harvested and incorporated radioactivity measured. Duplicate samples were analyzed for each compound dose with multiple control samples. Data were fitted by a least-squares method to an exponential of the form y=y0+ae^−bx, where y is the radioactivity (corrected for background and normalized to 100% of the control) x is the radiation dose, and y0, a and b are variables, and the IC50 value defined as the compound concentration reducing ^3H-thymidine levels by 50%.

The next assay has as its system NZB5. In words: Cellular growth inhibition (3H-thymidine), NZB5. The class given is cell-based. To be noted: Homo sapiens, five days, 3H-thymidine incorporation, maximum 20 μM. The method, then: as §2
[1] abbreviates: read-out: IC50 (nM) p110α, recombinant enzyme, 100 μM ATP, average of two experiments.

Chain of p110β/p85 (P42338 whole entry, species assumed): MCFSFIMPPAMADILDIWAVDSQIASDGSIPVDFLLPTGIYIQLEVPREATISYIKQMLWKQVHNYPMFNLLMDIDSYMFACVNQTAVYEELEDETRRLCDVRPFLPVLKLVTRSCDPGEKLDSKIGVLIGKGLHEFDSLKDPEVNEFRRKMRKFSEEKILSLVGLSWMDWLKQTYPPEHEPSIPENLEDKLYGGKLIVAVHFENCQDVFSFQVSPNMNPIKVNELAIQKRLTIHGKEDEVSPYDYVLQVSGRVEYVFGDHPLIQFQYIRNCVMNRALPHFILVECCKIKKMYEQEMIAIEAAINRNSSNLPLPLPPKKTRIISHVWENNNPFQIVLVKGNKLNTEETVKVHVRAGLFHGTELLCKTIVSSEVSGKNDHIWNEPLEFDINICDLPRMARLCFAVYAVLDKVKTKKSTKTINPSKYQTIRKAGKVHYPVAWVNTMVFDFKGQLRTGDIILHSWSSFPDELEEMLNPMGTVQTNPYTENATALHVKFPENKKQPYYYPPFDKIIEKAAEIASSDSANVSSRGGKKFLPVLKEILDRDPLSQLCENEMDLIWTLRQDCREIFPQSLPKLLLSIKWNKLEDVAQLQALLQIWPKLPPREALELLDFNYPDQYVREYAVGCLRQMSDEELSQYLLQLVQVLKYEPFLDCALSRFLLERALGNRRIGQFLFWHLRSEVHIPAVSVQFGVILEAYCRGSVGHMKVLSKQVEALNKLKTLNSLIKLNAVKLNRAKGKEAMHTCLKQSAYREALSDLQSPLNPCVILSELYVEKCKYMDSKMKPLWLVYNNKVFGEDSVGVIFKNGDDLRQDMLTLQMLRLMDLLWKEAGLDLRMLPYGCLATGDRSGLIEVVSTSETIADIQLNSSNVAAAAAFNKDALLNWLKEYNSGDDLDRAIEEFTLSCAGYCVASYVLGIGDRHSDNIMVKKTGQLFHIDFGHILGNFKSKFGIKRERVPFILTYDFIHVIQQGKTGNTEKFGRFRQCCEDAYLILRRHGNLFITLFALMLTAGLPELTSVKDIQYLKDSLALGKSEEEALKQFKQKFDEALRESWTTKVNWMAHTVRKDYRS
Chain of p110β/p85 (P27986 whole entry partner, species assumed): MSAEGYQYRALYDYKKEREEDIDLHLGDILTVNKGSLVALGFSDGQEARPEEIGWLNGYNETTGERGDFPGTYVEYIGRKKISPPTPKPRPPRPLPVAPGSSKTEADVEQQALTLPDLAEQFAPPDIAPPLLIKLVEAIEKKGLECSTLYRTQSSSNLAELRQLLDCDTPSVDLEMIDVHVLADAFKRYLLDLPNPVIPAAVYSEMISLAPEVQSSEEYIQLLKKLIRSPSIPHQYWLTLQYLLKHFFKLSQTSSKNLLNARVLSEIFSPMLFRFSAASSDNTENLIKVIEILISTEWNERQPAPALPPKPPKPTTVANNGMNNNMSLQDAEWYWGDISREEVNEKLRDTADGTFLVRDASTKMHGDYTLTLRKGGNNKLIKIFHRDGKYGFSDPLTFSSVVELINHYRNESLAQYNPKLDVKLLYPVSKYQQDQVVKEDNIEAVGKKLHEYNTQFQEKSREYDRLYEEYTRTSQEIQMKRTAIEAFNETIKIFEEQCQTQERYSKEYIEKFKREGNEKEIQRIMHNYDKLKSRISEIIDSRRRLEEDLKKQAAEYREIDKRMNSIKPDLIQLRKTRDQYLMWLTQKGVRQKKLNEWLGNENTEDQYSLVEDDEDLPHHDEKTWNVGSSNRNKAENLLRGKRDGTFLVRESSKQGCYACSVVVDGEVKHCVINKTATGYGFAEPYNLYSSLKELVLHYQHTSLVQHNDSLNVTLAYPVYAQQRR
Chain of p110α/p85 (P42336 whole entry, species assumed): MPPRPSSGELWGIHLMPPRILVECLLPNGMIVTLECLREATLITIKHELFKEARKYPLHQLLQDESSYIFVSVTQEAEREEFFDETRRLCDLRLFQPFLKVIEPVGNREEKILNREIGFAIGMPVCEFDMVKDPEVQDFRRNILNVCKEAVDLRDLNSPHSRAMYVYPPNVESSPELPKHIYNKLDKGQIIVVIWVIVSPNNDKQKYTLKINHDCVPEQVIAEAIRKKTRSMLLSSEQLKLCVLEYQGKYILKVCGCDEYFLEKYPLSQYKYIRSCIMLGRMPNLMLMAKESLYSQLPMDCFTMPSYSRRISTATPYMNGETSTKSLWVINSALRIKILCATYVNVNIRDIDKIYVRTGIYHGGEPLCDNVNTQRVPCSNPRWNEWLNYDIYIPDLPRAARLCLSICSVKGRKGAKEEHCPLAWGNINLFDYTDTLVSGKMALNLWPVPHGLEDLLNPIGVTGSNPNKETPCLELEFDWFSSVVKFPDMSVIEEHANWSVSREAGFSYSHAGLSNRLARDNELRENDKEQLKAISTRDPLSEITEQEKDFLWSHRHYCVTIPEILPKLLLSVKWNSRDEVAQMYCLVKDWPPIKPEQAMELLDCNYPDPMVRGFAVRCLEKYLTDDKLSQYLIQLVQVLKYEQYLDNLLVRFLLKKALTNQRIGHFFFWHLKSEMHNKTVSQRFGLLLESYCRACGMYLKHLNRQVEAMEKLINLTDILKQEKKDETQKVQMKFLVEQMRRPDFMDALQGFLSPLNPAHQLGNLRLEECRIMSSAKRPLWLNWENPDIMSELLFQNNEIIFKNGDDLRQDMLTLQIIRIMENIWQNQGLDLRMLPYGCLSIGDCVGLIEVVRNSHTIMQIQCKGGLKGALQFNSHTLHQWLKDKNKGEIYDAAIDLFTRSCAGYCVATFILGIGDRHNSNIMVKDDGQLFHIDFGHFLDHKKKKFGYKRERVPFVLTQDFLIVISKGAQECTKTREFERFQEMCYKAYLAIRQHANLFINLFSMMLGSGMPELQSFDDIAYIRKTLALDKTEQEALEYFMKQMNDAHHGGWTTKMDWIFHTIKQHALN
Chain of p110α/p85 (P27986 whole entry partner, species assumed): as the sequence (P27986 whole entry partner, species assumed) above
Chain of p110δ/p85 (O00329 whole entry, species assumed): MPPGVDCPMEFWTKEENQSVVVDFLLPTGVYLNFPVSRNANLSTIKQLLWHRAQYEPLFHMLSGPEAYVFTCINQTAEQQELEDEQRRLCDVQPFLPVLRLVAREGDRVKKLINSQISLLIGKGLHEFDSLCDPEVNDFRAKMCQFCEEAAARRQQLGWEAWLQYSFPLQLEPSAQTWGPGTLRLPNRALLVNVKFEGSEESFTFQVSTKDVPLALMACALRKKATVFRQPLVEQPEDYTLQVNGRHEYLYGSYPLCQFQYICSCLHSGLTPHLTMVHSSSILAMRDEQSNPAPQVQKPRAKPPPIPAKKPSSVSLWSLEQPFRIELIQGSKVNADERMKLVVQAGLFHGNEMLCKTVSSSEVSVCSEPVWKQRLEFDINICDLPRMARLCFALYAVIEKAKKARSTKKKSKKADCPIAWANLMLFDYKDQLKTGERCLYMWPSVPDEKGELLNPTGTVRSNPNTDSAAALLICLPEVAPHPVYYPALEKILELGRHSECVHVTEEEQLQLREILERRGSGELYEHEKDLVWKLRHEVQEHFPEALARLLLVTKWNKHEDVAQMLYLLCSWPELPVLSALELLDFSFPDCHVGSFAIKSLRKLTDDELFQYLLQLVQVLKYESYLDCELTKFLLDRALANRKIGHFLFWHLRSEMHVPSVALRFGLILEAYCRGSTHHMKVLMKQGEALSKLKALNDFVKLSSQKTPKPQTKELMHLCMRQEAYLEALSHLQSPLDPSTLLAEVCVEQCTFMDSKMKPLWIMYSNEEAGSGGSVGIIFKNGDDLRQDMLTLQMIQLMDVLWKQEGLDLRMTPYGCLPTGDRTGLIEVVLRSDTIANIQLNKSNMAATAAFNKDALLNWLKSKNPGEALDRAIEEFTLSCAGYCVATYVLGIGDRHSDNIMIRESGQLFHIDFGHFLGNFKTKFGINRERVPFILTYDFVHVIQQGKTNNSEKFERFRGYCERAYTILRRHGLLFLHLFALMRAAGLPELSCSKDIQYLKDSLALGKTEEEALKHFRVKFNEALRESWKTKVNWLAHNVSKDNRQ
Chain of p110δ/p85 (P27986 whole entry partner, species assumed): as the sequence (P27986 whole entry partner, species assumed) above

Regarding `CN(N=Cc1cnn2ccc(C#N)cc12)S(=O)(=O)c1cc([N+](=O)[O-])ccc1NCc1cccnc1` [E65, N′-((5-Cyanopyrazolo[1,5-a]pyridin-3-yl)methylene)-N-methyl-5-nitro-2-(pyridin-3-ylmethylamino)benzenesulfonohydrazide hydrochloride], the IC50 is 580 nM at p110β/p85; 9.6 nM at p110α/p85 (setting [1]); 440 nM at p110δ/p85; 0.68 µM in the assay with NZOV9; 1.1 µM in the assay with NZB5.

Consider `CN(N=Cc1cnn2ccc(C#N)cc12)S(=O)(=O)c1cc([N+](=O)[O-])ccc1OCc1ccccn1` [E71, N′-((5-Cyanopyrazolo[1,5-a]pyridin-3-yl)methylene)-N-methyl-5-nitro-2-(pyridin-2-ylmethoxy)benzenesulfonohydrazide hydrochloride], for which the IC50 was found to be 5600 nM on p110β/p85; 5.8 nM at p110α/p85; 200 nM at p110δ/p85; 0.66 µM with NZOV9; 1.3 µM with NZB5.

Consider `CN(C)c1ccc([N+](=O)[O-])cc1S(=O)(=O)N(C)N=Cc1cnn2ccc(Br)cc12` [E73, N′-((5-Bromopyrazolo[1,5-a]pyridin-3-yl)methylene)-2-(dimethylamino)-N-methyl-5-nitrobenzenesulfonohydrazide], for which the IC50 was 35 nM on p110β/p85; 3.4 nM at p110α/p85 (setting [1]); 210 nM at p110δ/p85; 0.31 µM in the assay on NZOV9; 0.11 µM with NZB5.

Take `CN(N=Cc1cnn2ccc(Br)cc12)S(=O)(=O)c1cc([N+](=O)[O-])ccc1OCCN1CCOCC1` [E74, N′-((5-Bromopyrazolo[1,5-a]pyridin-3-yl)methylene)-N-methyl-2-(2-morpholinoethoxy)-5-nitrobenzenesulfonohydrazide hydrochloride]: the IC50 at p110β/p85 is 2900 nM; on p110α/p85 (setting [1]) it was 32 nM; on p110δ/p85, 350 nM; in the assay on NZOV9, 0.55 µM; in the assay with NZB5 it was 0.27 µM.

Take `CN(C)CCN(C)c1ccc(C#N)cc1S(=O)(=O)N(C)N=Cc1cnn2ccc(C#N)cc12` [E77, 5-Cyano-N′-((5-cyanopyrazolo[1,5-a]pyridin-3-yl)methylene)-2-((2-(dimethylamino)ethyl)(methyl)amino)-N-methylbenzenesulfonohydrazide hydro-chloride]: the IC50 on p110β/p85 was 360 nM; at p110α/p85 (setting [1]) it was 10 nM; at p110δ/p85, 380 nM; in the assay with NZOV9 it was 0.05 µM; with NZB5, 0.06 µM.

`CN(N=Cc1cnn2ccc(C#N)cc12)S(=O)(=O)c1cc([N+](=O)[O-])cnc1Cl` [E80, 2-Chloro-N′-((5-cyanopyrazolo[1,5-a]pyridin-3-yl)methylene)-N-methyl-5-nitropyridine-3-sulfonohydrazide]: the IC50 at p110β/p85 worked out at 5800 nM; on p110α/p85 (setting [1]), 23 nM; at p110δ/p85 it was 230 nM; with NZOV9 it was 3.4 µM; in the assay on NZB5, 7.9 µM.

`CN(N=Cc1cnn2ccc(C#N)cc12)C(=O)c1cccc([N+](=O)[O-])c1` [E82, N′-((5-Cyanopyrazolo[1,5-a]pyridin-3-yl)methylene)-N-methyl-3-nitro-benzohydrazide]: the IC50 at p110β/p85 is 72 nM; at p110α/p85 (setting [1]), 21 nM; at p110δ/p85 it was 19 nM; with NZOV9, 6 µM; in the assay on NZB5, 1.8 µM.

On to `Cc1ccc([N+](=O)[O-])cc1CN(C)N=Cc1cnn2ccc(C#N)cc12` [E84, 3-((2-Methyl-2-(2-methyl-5-nitrobenzyl)hydrazono)methyl)pyrazolo[1,5-a]pyridine-5-carbonitrile], for which the IC50 at p110β/p85 amounted to 48 nM; at p110α/p85 (setting [1]), 41 nM; on p110δ/p85 it was 39 nM; in the assay on NZOV9 it was 1.9 µM; with NZB5 it was 1.7 µM.

In the case of `Cc1ccc([N+](=O)[O-])cc1S(=O)(=O)n1ccc(-c2cnn3ccc(Br)cc23)n1` [E88, 5-bromo-3-(1-(2-methyl-5-nitrophenylsulfonyl)-1H-pyrazol-3-yl)pyrazolo[1,5-a]pyridine], the IC50 on p110β/p85 was over 1000 nM; on p110α/p85 (setting [1]), 250 nM; at p110δ/p85, 1450 nM; in the assay on NZOV9 it was 0.07 µM; in the assay with NZB5, 0.08 µM.

`O=[N+]([O-])c1cccc(S(=O)(=O)c2nc(-c3cnn4ccc(Br)cc34)cs2)c1` [E90, 4-(5-Bromopyrazolo[1,5-a]pyridin-3-yl)-2-(3-nitrophenylsulfonyl)thiazole]: the IC50 at p110β/p85 was determined as 5500 nM; at p110α/p85 (setting [1]) it was 790 nM; at p110δ/p85, 250 nM; in the assay on NZOV9 it was 0.61 µM; in the assay on NZB5 it was 0.18 µM.

For `Cc1ccc([N+](=O)[O-])cc1Sc1nnc(-c2cnn3ccc(Br)cc23)o1` [E91, 2-(5-Bromopyrazolo[1,5-a]pyridin-3-yl)-5-(2-methyl-5-nitrophenylthio)-1,3,4-oxadiazole], the IC50 on p110β/p85 is over 1000 nM; against p110α/p85 it was 84 nM; on p110δ/p85 it was 120 nM; in the assay on NZOV9, 2.8 µM; with NZB5, 0.73 µM.
